Measurements: the supplement of paper PMC13380429

Tests used:
Conditions in all cases: 72 h
U2OS [1] = test: cell viability relative to DMSO; higher = less toxic
Caco-2 [2] = test: as above
HepG2 [3] = test: as above
U2OS [4] = test: drug sensitivity score (DSS) for viability; higher = more toxic; extreme values may be limits of the assay
Caco-2 [5] = test: as above
HepG2 [6] = test: as above
U2OS [7] = test: relative viability EC50 (midpoint between 100% and the lowest measured viability); higher = less toxic
Caco-2 [8] = test: as above
HepG2 [9] = test: as above
Calu-3 [10] = test: cell viability relative to DMSO; higher = less toxic
Vero E6 [11] = test: as above
Calu-3 [12] = test: drug sensitivity score (DSS) for viability; higher = more toxic; extreme values may be limits of the assay
Vero E6 [13] = test: as above
Calu-3 [14] = test: relative viability EC50 (midpoint between 100% and the lowest measured viability); higher = less toxic
Vero E6 [15] = test: as above

| Structure (SMILES) | cell viability (U2OS [1]; 1 nM) [%] | cell viability (U2OS [1]; 10 nM) [%] | cell viability (U2OS [1]; 100 nM) [%] | cell viability (U2OS [1]; 1000 nM) [%] | cell viability (U2OS [1]; 10000 nM) [%] | cell viability (Caco-2 [2]; 1 nM) [%] | cell viability (Caco-2 [2]; 10 nM) [%] | cell viability (Caco-2 [2]; 100 nM) [%] | cell viability (Caco-2 [2]; 1000 nM) [%] | cell viability (Caco-2 [2]; 10000 nM) [%] | cell viability (HepG2 [3]; 1 nM) [%] | cell viability (HepG2 [3]; 10 nM) [%] | cell viability (HepG2 [3]; 100 nM) [%] | cell viability (HepG2 [3]; 1000 nM) [%] | cell viability (HepG2 [3]; 10000 nM) [%] | drug sensitivity score (U2OS [4]) | drug sensitivity score (Caco-2 [5]) | drug sensitivity score (HepG2 [6]) | relative viability EC50 (U2OS [7]) [µM] | relative viability EC50 (Caco-2 [8]) [µM] | relative viability EC50 (HepG2 [9]) [µM] | cell viability (Calu-3 [10]; 1 nM) [%] | cell viability (Calu-3 [10]; 10 nM) [%] | cell viability (Calu-3 [10]; 100 nM) [%] | cell viability (Calu-3 [10]; 1000 nM) [%] | cell viability (Calu-3 [10]; 10000 nM) [%] | cell viability (Vero E6 [11]; 1 nM) [%] | cell viability (Vero E6 [11]; 10 nM) [%] | cell viability (Vero E6 [11]; 100 nM) [%] | cell viability (Vero E6 [11]; 1000 nM) [%] | cell viability (Vero E6 [11]; 10000 nM) [%] | drug sensitivity score (Calu-3 [12]) | drug sensitivity score (Vero E6 [13]) | relative viability EC50 (Calu-3 [14]) [µM] | relative viability EC50 (Vero E6 [15]) [µM] |
| --- | --- | --- | --- | --- | --- | --- | --- | --- | --- | --- | --- | --- | --- | --- | --- | --- | --- | --- | --- | --- | --- | --- | --- | --- | --- | --- | --- | --- | --- | --- | --- | --- | --- | --- | --- |
| Cc1cccc(C(=O)NCN2CCN(c3ccccc3C#N)CC2)c1 | 98.1 | 103 | 97.2 | 101 | 101 | 95.3 | 103 | 89.1 | 104 | 104 | 105 | 96.6 | 96.9 | 101 | 94.5 | 0 | 0 | 0 | > 10 | > 10 | > 10 | – | – | – | – | – | – | – | – | – | – | – | – | – | – |
| N#C[C@@H]1C[C@@H]2C[C@@H]2N1C(=O)[C@@H](N)C12CC3CC(CC(O)(C3)C1)C2 | 98.5 | 102 | 93.5 | 100 | 87.7 | 101 | 98.6 | 95.8 | 104 | 98.2 | – | – | – | – | – | 0 | 0 | – | > 10 | > 10 | – | 98.2 | 108 | 92.8 | 108 | 97.7 | 95.5 | 104 | 97.8 | 97.9 | 96.6 | 0 | 0 | > 10 | > 10 |
| Cc1oc2ccccc2c1CNC(=O)NCc1cccs1 | – | – | – | – | – | 103 | 106 | 98.4 | 96.9 | 96.6 | – | – | – | – | – | – | 0 | – | – | > 10 | – | 92.4 | 93.4 | 96.2 | 89.9 | 99.3 | 103 | 107 | 102 | 96.9 | 97.9 | 0 | 0 | > 10 | > 10 |
| N#C/C(=C\c1ccc(O)c(O)c1)C(=O)NCc1ccccc1 [AG-490] | 94.1 | 99.8 | 95.8 | 103 | 95.5 | 95.9 | 98.7 | 92.5 | 92.2 | 82.1 | 96.4 | 101 | 99.9 | 95 | 66.6 | 0 | 0.7 | 2.4 | > 10 | > 10 | – | 96.7 | 103 | 92.8 | 96.7 | 91.6 | 94.1 | 98.2 | 98.7 | 94.7 | 86.6 | 0 | 0.2 | > 10 | > 10 |
